The text below walks through data of paper PMC2941991 (ACS chemical biology, 2009).

The target of this test is T1, T877A full-length androgen receptor mutant (Homo sapiens, UniProt P10275, T878A).
T1 sequence (P10275 1-920 T878A): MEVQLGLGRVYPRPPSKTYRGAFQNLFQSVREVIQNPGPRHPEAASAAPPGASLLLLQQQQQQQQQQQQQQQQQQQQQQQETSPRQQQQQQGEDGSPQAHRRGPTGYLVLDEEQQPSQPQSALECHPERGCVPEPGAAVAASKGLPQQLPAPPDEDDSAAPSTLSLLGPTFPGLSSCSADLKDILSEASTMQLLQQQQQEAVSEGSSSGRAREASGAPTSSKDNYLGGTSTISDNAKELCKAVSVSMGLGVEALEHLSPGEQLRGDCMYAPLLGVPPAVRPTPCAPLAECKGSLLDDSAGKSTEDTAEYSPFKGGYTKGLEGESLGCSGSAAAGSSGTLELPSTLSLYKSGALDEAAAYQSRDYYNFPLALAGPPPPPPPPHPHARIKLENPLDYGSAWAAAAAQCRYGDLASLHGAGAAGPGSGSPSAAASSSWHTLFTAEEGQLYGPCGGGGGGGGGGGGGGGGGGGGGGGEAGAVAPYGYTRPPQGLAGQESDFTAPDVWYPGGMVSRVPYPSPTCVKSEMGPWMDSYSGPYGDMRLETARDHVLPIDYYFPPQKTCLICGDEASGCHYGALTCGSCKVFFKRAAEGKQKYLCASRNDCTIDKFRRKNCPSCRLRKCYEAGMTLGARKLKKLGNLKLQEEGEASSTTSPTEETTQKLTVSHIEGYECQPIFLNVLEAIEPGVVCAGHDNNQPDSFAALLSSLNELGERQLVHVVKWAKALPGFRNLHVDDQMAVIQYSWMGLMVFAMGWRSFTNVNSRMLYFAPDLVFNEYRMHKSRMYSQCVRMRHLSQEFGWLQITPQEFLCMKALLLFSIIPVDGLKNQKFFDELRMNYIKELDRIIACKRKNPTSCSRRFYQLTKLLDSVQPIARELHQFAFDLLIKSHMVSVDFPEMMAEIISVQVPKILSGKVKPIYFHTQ
In words: Luciferase reporter gene assay, full-length AR with the LNCaP mutation. Format: cell-based.

For the compound `CC(C)(O)C(=O)Nc1ccc([N+](=O)[O-])c(C(F)(F)F)c1` [OH-Flu, 2-hydroxyflutamide], the “Agonist or antagonist action on the AR T877A mutant” value is “act as agonists”.
